From patent US20250212877A1, “SUGAR-CONTAINING COMPOSITION FOR FOLIAR SPRAY AND METHOD OF USING THE SAME” (priority 2022, published 2025)

Tested on: tomato leaf
Test: Foliar absorption rate of sugar, Congo red method, tomato leaf
Details: summary of TABLE 1 over tomato and strawberry leaves; no adjuvant
From the text: In glass greenhouse, cucumber (Korean White, made by Farm Hannong, Korea) and tomato (Seogwangtomato, made by Farm Hannong, Korea) seeds were sown to raise plants. The young plants were transplanted to a vinyl cup having a diameter of 10 cm and cucumber was cultivated up to 4.5-leaf stage and tomato was cultivated up to 6.5-leaf stage. Strawberry young plants (KINGSBERRY) were given from strawberry laboratory, put in each cup pot having a diameter of 10 cm and cultivated up to 6 to 8-leaf stage in the greenhouse. […] Acetonitrile and nonionized water were mixed at 3:7 (volume/volume) to prepare a 30% acetonitrile aqueous solution, 8 ml was put into a test tube having an outer diameter of 32 mm and a length of 200 mm and the test tube was closed with a rubber lid. The leaves sprayed with the sugar aqueous solution was picked, put and cleaned by reverse shaking at the speed of 60 rpm for 2 minutes. The cleaning solution was analyzed by high-performance liquid chromatography (HPLC) to quantify Congo red and sugar, and the sugar absorption rate was calculated by the following Equation 1.

SMILES: OC[C@H]1O[C@@](CO)(O[C@H]2O[C@H](CO)[C@@H](O)[C@H](O)[C@H]2O)[C@@H](O)[C@@H]1O [sucrose]
- Absorption by tomato leaves and strawberry leaves, maximum: ≤ 1.3%
